Laboratory results: the supplement of paper PMC8967900

Legend:
Test in all cases: selective drug sensitivity score (sDSS, relative to normal bone marrow) (sDSS (score)); higher = more potent and effective on the cell line relative to normal bone marrow cells
Details in all cases: 72 h
COG-LL-355h = tested on: COG-LL-355h
PEER = tested on: PEER
MOLT-16 = tested on: MOLT-16
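Further: ALL cell lines in 384-well plates, five doses spanning 10,000-fold, each plate scaled between vehicle and 100 µmol/L benzalkonium chloride controls, sDSS an adapted area-under-curve metric.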

| SMILES | selective drug sensitivity score (COG-LL-355h) | selective drug sensitivity score (PEER) | selective drug sensitivity score (MOLT-16) |
| --- | --- | --- | --- |
| C[C@@H](C(=O)O)c1ccc(-c2ccccc2)c(F)c1 [Tarenflurbil] (top concentration 10000 nM) | -0.16 | -0.16 | 5.04 |
| COc1cc(OC2CCN(C)CC2)ccc1Nc1ncc2c(n1)n(C1CCCC1)c(=O)n2C [AZ3146] (top concentration 10000 nM) | 2.94 | 2.54 | 0.44 |
| Cc1ccc(=O)n(-c2ccccc2)c1 [Pirfenidone] (top concentration 10000 nM) | 0 | 0 | 0 |
| CN(C)C/C=C/C(=O)Nc1cc2c(Nc3ccc(F)c(Cl)c3)ncnc2cc1O[C@H]1CCOC1 [Afatinib] (top concentration 1000 nM) | 0.46 | 0.66 | -0.34 |
| C=CC(=O)Nc1cccc(Nc2nc(Nc3ccc(OCCOC)cc3)ncc2F)c1 [Spebrutinib] (top concentration 1000 nM) | 0.64 | 0.74 | 0.64 |
| CC(C)(O)CNc1nc(Nc2ccnc(C(F)(F)F)c2)nc(-c2cccc(C(F)(F)F)n2)n1 [Enasidenib] (top concentration 10000 nM) | -0.6 | 0.6 | 0.1 |
| O=C(CCNC(=O)c1ccc(OC(F)(F)F)cc1)N[C@@H]1CCCc2ccccc21 [ML390] (top concentration 50000 nM) | 8.6 | 5.5 | 20.8 |
| C[C@H]1Oc2cc(cnc2N)-c2c(nn(C)c2C#N)CN(C)C(=O)c2ccc(F)cc21 (top concentration 1000 nM) | 2.18 | -0.72 | -0.32 |
| CCCc1cc(C)[nH]c(=O)c1CNC(=O)c1cc(-c2ccnc(N3CCN(C)CC3)c2)cc2c1cnn2C(C)C [GSK343] (top concentration 1000 nM) | 0 | 0 | 0 |
| Cc1ccc(NC(=O)c2ccc(CN3CC[C@H](N(C)C)C3)c(C(F)(F)F)c2)cc1Nc1nccc(-c2cncnc2)n1 [Bafetinib] (top concentration 1000 nM) | 0.8 | 15.4 | 0 |
| FC(F)c1nc2ccccc2n1-c1nc(N2CCOCC2)nc(N2CCOCC2)n1 [ZSTK474] (top concentration 10000 nM) | 14.4 | -3.64 | 6.46 |
| CN1CCN(c2cc(C(=O)Nc3ccc4c(c3)-c3c(c(C(N)=O)nn3-c3ccc(F)cc3)CC4)c(Cl)cn2)CC1 [PHA-408] (top concentration 10000 nM) | 3.38 | 3.18 | 1.28 |
| NCCNc1ccc(NCCN)c2c1C(=O)c1ccncc1C2=O [Pixantrone] (top concentration 10000 nM) | 0.34 | -2.76 | -2.46 |
| CCN(CC)CCOc1ccc(/C(=C(/Cl)c2ccccc2)c2ccccc2)cc1 [Clomifene] (top concentration 10000 nM) | 0.52 | 1.02 | 0.92 |
| CCNCCS(=O)(=O)NC[C@@]1(c2ccccc2)SC(NC(=O)C(C)(C)C)=NN1C(=O)C(C)(C)C [Litronesib] (top concentration 1000 nM) | 4.44 | 21.4 | 20.2 |
| NS(=O)(=O)NCCNc1nonc1/C(=N/O)Nc1ccc(F)c(Br)c1 [Epacadostat] (top concentration 10000 nM) | -0.26 | 0.14 | -0.06 |
| COCC1(CO)C(=O)C2CCN1CC2 (centres undefined) [APR-246] (top concentration 10000 nM) | 2.44 | -1.16 | 1.04 |
| COc1cc2nccc(Oc3ccc(NC(=O)C4(C(=O)Nc5ccc(F)cc5)CC4)cc3)c2cc1OC [Cabozantinib] (top concentration 1000 nM) | 2.18 | 2.08 | -3.62 |
